Experimental data reported in EPA's ToxRefDB 2.

Experiments:
[1] = system: rat; conditions: Prenatal developmental toxicity study, other, Oral, Gavage/Intubation, dose end: 15 GD
[2] = system: rat; conditions: Subchronic oral toxicity in rodents, other, Feed, dose end: 3 month, group: systemic
[3] = system: mouse; conditions: Carcinogenicity; other; Oral; Feed; dose end: 18 month; group: systemic; systemic / clinical chemistry / alanine aminotransferase (alt/sgpt) / alanine aminotransferase (alt/sgpt) + systemic / clinical chemistry / …
[4] = system: rat; conditions: Multigenerational reproductive toxicity study, sprague dawley, Oral, Feed, dose end: 2 generation
[5] = system: rat; conditions: Combined chronic toxicity/carcinogenicity, other, Oral, Feed, dose end: 24 month, group: systemic
[6] = system: dog; conditions: Subchronic oral toxicity in nonrodent, beagle, Feed, dose end: 90 day, group: systemic
[7] = system: dog; conditions: Chronic toxicity; beagle; Oral; Feed; dose end: 52 week; group: systemic; systemic / in life observation / body weight / body weight gain + systemic / in life observation / clinical signs / abnormal gait + systemic…
[8] = system: rat; conditions: Subchronic oral toxicity in rodents, fischer, Gavage/Intubation, dose end: 14 week, group: systemic
[9] = system: rat; conditions: Combined chronic toxicity/carcinogenicity; fischer; Oral; Gavage/Intubation; dose end: 2 year; group: systemic; systemic / pathology microscopic / kidney / hyperplasia + systemic / pathology microscopic / kidney / nephropathy + systemic / pathology …
[10] = system: rat; conditions: Prenatal developmental toxicity study, wistar, Oral, Gavage/Intubation, dose end: 15 GD
[11] = system: mouse; conditions: Combined chronic toxicity/carcinogenicity, b6c3f1, Oral, Gavage/Intubation, dose end: 2 year, group: systemic
[12] = system: rat; conditions: Peri- and post-natal toxicity study (Segment III), wistar, Oral, Gavage/Intubation, dose end: 21 PND
[13] = system: mouse; conditions: Subchronic oral toxicity in rodents, b6c3f1, Gavage/Intubation, dose end: 14 week, group: systemic
[14] = group: developmental, developmental / developmental malformation / bone / incomplete ossification + developmental / developmental malformation / bone / irregular …
[15] = group: maternal, systemic / in life observation / body weight / body weight gain
[16] = systemic / clinical chemistry / alkaline phosphatase (alp/alk) / alkaline phosphatase (alp/alk) + systemic / organ weight / liver / absolute…
[17] = group: offspring, developmental / offspring survival late / lactation index / lactation index + systemic / in life observation / body weight / offspring (pup…
[18] = group: parental, systemic / in life observation / body weight / body weight gain + systemic / in life observation / food consumption / food consumption + …
[19] = systemic / pathology microscopic / kidney / pigmentation + systemic / pathology microscopic / liver / hypertrophy
[20] = systemic / pathology microscopic / kidney / pigmentation + systemic / pathology microscopic / liver / hypertrophy + systemic / pathology …
[21] = systemic / in life observation / clinical signs / skin ulceration
[22] = systemic / in life observation / clinical signs / skin ulceration + systemic / clinical chemistry / alkaline phosphatase (alp/alk) / …
[23] = systemic / organ weight / kidney / absolute + systemic / organ weight / kidney / relative to body weight + systemic / organ weight / liver…
[24] = group: developmental, developmental / developmental malformation / bone / [other] + developmental / developmental malformation / bone / delayed ossification + …
[25] = group: maternal, reproductive / reproductive performance / implantations / implantations + systemic / in life observation / body weight / body weight gain + …
[26] = systemic / pathology microscopic / liver / adenoma/carcinoma combined + systemic / pathology microscopic / liver / adenoma + systemic / …
[27] = group: developmental, developmental / developmental landmark / eye opening / eye opening + developmental / developmental landmark / pinna unfolding / pinna …
[28] = group: maternal, reproductive / reproductive performance / dystocia / dystocia + reproductive / reproductive performance / fertility / fertility + …
[29] = group: offspring, systemic / in life observation / body weight / offspring (pup) weight
[30] = group: parental, systemic / in life observation / body weight / body weight + systemic / in life observation / body weight / body weight gain + systemic / in…
[31] = systemic / organ weight / kidney / relative to body weight + systemic / organ weight / liver / absolute

C#CCOC(=O)[C@@H](C)Oc1ccc(Oc2ncc(Cl)cc2F)cc1 [Clodinafop-propargyl mixt.]
LEL [1, 14]: 40 mg/kg/day | LOAEL [1, 14]: 40 mg/kg/day | NEL [1, 14]: 5 mg/kg/day | NOAEL [1, 14]: 5 mg/kg/day | LEL [1, 15]: 5 mg/kg/day | LOAEL [1, 15]: > 160 mg/kg/day | NEL [1, 15]: < 5 mg/kg/day | NOAEL [1, 15]: ≥ 160 mg/kg/day | LEL [2, 16]: 8.24 mg/kg/day | LOAEL [2, 16]: 8.24 mg/kg/day | NOAEL [2, 16]: 0.92 mg/kg/day | NEL ([2]; systemic / hematology / erythrocyte (rbc) count differential / erythrocyte (rbc) + systemic / hematology / hemoglobin (hgb) / hemoglobin (…): 0.92 mg/kg/day | LEL [3]: 11 mg/kg/day | LOAEL [3]: 11 mg/kg/day | NEL [3]: 1.1 mg/kg/day | NOAEL [3]: 1.1 mg/kg/day | LEL [4, 17]: 31.7 mg/kg/day | LOAEL [4, 17]: 31.7 mg/kg/day | NEL [4, 17]: 3.21 mg/kg/day | NOAEL [4, 17]: 3.21 mg/kg/day | LEL [4, 18]: 31.7 mg/kg/day | LOAEL [4, 18]: 31.7 mg/kg/day | NEL [4, 18]: 3.21 mg/kg/day | NOAEL [4, 18]: 3.21 mg/kg/day | LEL [5, 19]: 0.324 mg/kg/day | LOAEL [5, 19]: 0.324 mg/kg/day | NEL [5, 20]: 0.031 mg/kg/day | NOAEL [5, 20]: 0.031 mg/kg/day | LEL [6, 21]: 1.73 mg/kg/day | LOAEL [6, 21]: 1.73 mg/kg/day | NEL [6, 22]: 0.346 mg/kg/day | NOAEL [6, 22]: 0.346 mg/kg/day | LEL [7]: 15.2 mg/kg/day | LOAEL [7]: 15.2 mg/kg/day | NEL [7]: 3.38 mg/kg/day | NOAEL [7]: 3.38 mg/kg/day

C=CC(=C)CCC=C(C)C [Myrcene]
LEL [8, 23]: 250 mg/kg/day | NEL [8, 23]: < 250 mg/kg/day | NOAEL [8, 23]: 250 mg/kg/day | LOAEL ([8]; systemic / organ weight / kidney / absolute + systemic / organ weight / kidney / relative to body weight + systemic / pathology microscopic…): 500 mg/kg/day | LEL [9]: 250 mg/kg/day | LOAEL [9]: 250 mg/kg/day | NEL [9]: < 250 mg/kg/day | NOAEL [9]: < 250 mg/kg/day | LEL [10, 24]: 1200 mg/kg/day | LOAEL [10, 24]: > 1200 mg/kg/day | NEL [10, 24]: 500 mg/kg/day | NOAEL [10, 24]: ≥ 1200 mg/kg/day | LEL [10, 25]: 1200 mg/kg/day | LOAEL [10, 25]: > 1200 mg/kg/day | NEL [10, 25]: 500 mg/kg/day | NOAEL [10, 25]: ≥ 1200 mg/kg/day | LOAEL ([11]; systemic / in life observation / body weight / body weight + systemic / pathology microscopic / liver / hypertrophy + systemic / pathology …): 500 mg/kg/day | NOAEL ([11]; systemic / pathology microscopic / liver / adenoma/carcinoma combined + systemic / in life observation / body weight / body weight + …): 250 mg/kg/day | LEL [11, 26]: 250 mg/kg/day | NEL [11, 26]: < 250 mg/kg/day | LOAEL [12, 27]: > 1500 mg/kg/day | NEL [12, 27]: 250 mg/kg/day | NOAEL [12, 27]: ≥ 1500 mg/kg/day | LEL ([12]; group: developmental, developmental / developmental malformation / general / [other]): 500 mg/kg/day | NEL ([12]; group: maternal, reproductive / offspring survival early / dead fetuses / dead fetuses + reproductive / offspring survival early / litter viability other / …): 250 mg/kg/day | LEL ([12]; group: maternal, reproductive / offspring survival early / litter viability other / litter viability): 500 mg/kg/day | LOAEL [12, 28]: > 1500 mg/kg/day | NOAEL [12, 28]: ≥ 1500 mg/kg/day | LEL [12, 29]: 500 mg/kg/day | LOAEL [12, 29]: > 1500 mg/kg/day | NEL [12, 29]: 250 mg/kg/day | NOAEL [12, 29]: ≥ 1500 mg/kg/day | LOAEL [12, 30]: > 1500 mg/kg/day | NEL [12, 30]: 500 mg/kg/day | NOAEL [12, 30]: ≥ 1500 mg/kg/day | LEL ([12]; group: parental, systemic / in life observation / body weight / body weight gain + systemic / pathology microscopic / stomach / hyperkeratosis): 1000 mg/kg/day | LOAEL ([13]; systemic / in life observation / body weight / body weight + systemic / in life observation / body weight / body weight gain): 1000 mg/kg/day | LEL [13, 31]: 250 mg/kg/day | NEL [13, 31]: < 250 mg/kg/day | NOAEL ([13]; systemic / organ weight / liver / absolute + systemic / in life observation / body weight / body weight + systemic / in life observation / …): 500 mg/kg/day
